The NIST ThermoML archive (doi:10.1016/j.fluid.2014.09.014)

Experiment: refractive index (other wavelength) (dimensionless); xn = mol fraction of the nth substance listed
Settings: 308.15 K, 101 kPa, Liquid, Standard Abbe refractometry

CC(C)OC(C)C [diisopropyl ether] + CC(C)O
refractive index
Settings | Wavelength=404.7 nm | Wavelength=435.8 nm | Wavelength=486.1 nm | Wavelength=546.1 nm
x1 = 0.0277 | 1.38135 | 1.37835 | 1.37495 | 1.37214
x1 = 0.0507 | 1.3813 | 1.3783 | 1.37488 | 1.37207
x1 = 0.051 | 1.38124 | 1.37824 | 1.37483 | 1.37202
x1 = 0.0717 | 1.38092 | 1.37792 | 1.37451 | 1.3717
x1 = 0.1528 | 1.38023 | 1.37724 | 1.37384 | 1.371
x1 = 0.1553 | 1.38023 | 1.37724 | 1.37384 | 1.371
x1 = 0.1938 | 1.37994 | 1.37695 | 1.37356 | 1.37072
x1 = 0.2029 | 1.3793 | 1.37665 | 1.37311 | 1.37028
x1 = 0.245 | 1.37901 | 1.37603 | 1.37266 | 1.36984
x1 = 0.297 | 1.37832 | 1.37533 | 1.37193 | 1.36911
x1 = 0.2973 | 1.37852 | 1.37554 | 1.37215 | –
x1 = 0.3068 | 1.37823 | 1.37525 | 1.3718 | –
x1 = 0.398 | 1.37692 | 1.37394 | 1.37056 | –
x1 = 0.4609 | 1.37625 | 1.37325 | 1.36987 | –
x1 = 0.5434 | 1.37535 | 1.37238 | 1.36896 | –
x1 = 0.6032 | 1.37466 | 1.3717 | 1.3683 | –
x1 = 0.6371 | 1.37427 | 1.37131 | 1.36792 | –
x1 = 0.701 | 1.37352 | 1.37059 | 1.36722 | –
x1 = 0.754 | 1.37312 | 1.37017 | 1.36681 | –
x1 = 0.791 | 1.37271 | 1.36974 | 1.36638 | –
x1 = 0.8296 | 1.37234 | 1.36938 | 1.36604 | –
x1 = 0.8864 | 1.37212 | 1.36915 | 1.3658 | –
x1 = 0.8903 | 1.37167 | 1.36871 | 1.36535 | –
x1 = 0.9113 | 1.37142 | 1.36847 | 1.36511 | –
x1 = 0.9547 | 1.37095 | 1.36796 | 1.36465 | –
x1 = 0.973 | 1.37062 | 1.36766 | 1.36431 | –
x1 = 0.9771 | 1.37048 | 1.36752 | 1.36417 | –
x1 = 1 | 1.37035 | 1.36739 | 1.36407 | –
